Assay results as given in US10227348B2, “Use of 10H-benzo[g]pteridine-2,4-dione derivatives” (TriOptoTec GmbH, priority 2011, dated 2019).

How the values were obtained:
[1] = tested on: Escherichia coli (ATCC number: 25922); test: Phototoxicity test (photodynamic inactivation, CFU/ml by Miles and Misra); type: cell-based; conditions: E. coli; irradiation at 10.5 J/cm^2 (50 mW/cm^2, 210 sec, 390-500 nm); incubation 10 min or 30 min; CFU/ml after 24 h
Procedure: (§1) A sample of the bacterial strain Staphylococcus aureus (ATCC number: 25923) or Escherichia coli (ATCC number: 25922) was taken from a cryogenically frozen culture, isolated on Müller-Hinton agar plates and cultivated under aerobic conditions at 37° C. in an overnight culture. Thereafter, 5 ml of Müller-Hinton liquid medium were inoculated with a smear of the bacterial culture (single colony) and incubated at 37° C. overnight. The bacterial suspension thus obtained was centrifuged at 2500 rpm for 10 min and the bacterial pellet obtained was resuspended in 5 ml of sterile PBS. The optical density of the bacterial suspensions for the phototoxicity tests was OD600nm=0.6, which corresponds to a bacteria count of ˜[…] bacteria per ml. The biochemical analysis and resistance determination of the bacteria were conducted with the VITEK2 system according to the M100-S14 guidelines from the NCCLS (2004).
(§2) 200 μl of a bacterial suspension (bacterial density: 10^8-10^12/ml) were incubated with 200 μl of each of various concentrations of the photosensitizers to be tested at room temperature for 10 min or 30 min. Thereafter, the bacteria were washed twice with distilled water and resuspended in 200 μl of distilled water, and the entire volume was transferred to a 96-well microtiter plate and then irradiated. The photosensitizers used were dissolved in distilled water and various dilution series were prepared (0 μM, 1 μM, 10 μM, 100 μM).
(§3) For sensitization, the Omnicure Series 2000 lamp (Photonics Solutions Inc., Edinburgh, UK) was used, which emits light from a range from 390 nm to 500 nm and has emission maxima Emax at 405 nm and 436 nm. The power applied in each case was 50 mW/cm^2.
(§4) Irradiated and unirradiated samples were used as controls. Likewise run were bacterial suspensions incubated only with photosensitizer (dark control).
(§5) The determination of the colony-forming units (CFU) per ml was conducted by the method published by Miles and Misra (Miles, A A; Misra, S S, Irwin, J O (1938 November). “The estimation of the bactericidal power of the blood.”. The Journal of hygiene 38 (6): 732-49). For this purpose, serial dilutions from 10^−2 to 10^−9 of the corresponding bacterial suspension were prepared. 3×20 μl of each of the corresponding bacterial dilutions were then dripped onto Müller-Hinton plates and incubated at 37° C. for 24 h. Thereafter, the number of surviving colony-forming units (CFU) was determined. Each of the experiments was repeated three times.
(§6) The effectiveness of phototoxicity with respect to bacteria after irradiation was defined according to the following guidelines for hand hygiene in the health sector (Boyce, J. M., and D. Pittet. 2002. Guideline for Hand Hygiene in Health-Care Settings: recommendations of the Healthcare Infection Control Practices Advisory Committee and the HICPAC/SHEA/APIC/IDSA Hand Hygiene Task Force. Infect Control Hosp Epidemiol 23: p. 3-40): • reduction in the CFU/ml by 1 log10 stage≙90% effectiveness • reduction in the CFU/ml by 3 log10 stages≙99.9% effectiveness • reduction in the CFU/ml by 5 log10 stages≙99.999% effectiveness
(§7) For effective inactivation, the decrease of ≥3 log10 stages can therefore be adopted, and S. aureus and E. coli were chosen as examples of representatives from the group of the Gram-positive and Gram-negative bacteria (see Boyce J. M and D. Pittet 2009).

[2] = tested on: Staphylococcus aureus (ATCC number: 25923); test: as above; type: cell-based; conditions: S. aureus; irradiation at 10.5 J/cm^2 (50 mW/cm^2, 210 sec, 390-500 nm); incubation 10 min or 30 min; CFU/ml after 24 h
Procedure: as §1, §2, §3, §4, §5, §6, §7

With `Cc1cc2nc3c(=O)[nH]c(=O)nc-3n(CCN)c2cc1C` [FL-01] as the compound, how does the “Required concentration to achieve a reduction by ≥3 log10 stages (decrease by 99.9%)” value [1] read?
Its value is 10 μM.

And the “Required concentration to achieve a reduction by ≥3 log10 stages (decrease by 99.9%)” value [2]?
The value was 10 μM.

`COCCn1c2nc(=O)n(CCN)c(=O)c-2nc2cc(C)c(C)cc21` [FL-03] was tested. Which “Required concentration to achieve a reduction by ≥3 log10 stages (decrease by 99.9%)” value [1] did it give?
Its value is >100^(*^) μM.

What about the “Required concentration to achieve a reduction by ≥3 log10 stages (decrease by 99.9%)” value [2] of the same compound?
The value was 10 μM.

Which “Required concentration to achieve a reduction by ≥3 log10 stages (decrease by 99.9%)” value [1] does the source give for `COCCn1c2nc(=O)n(CCNC(=N)N)c(=O)c-2nc2cc(C)c(C)cc21` [FL-04] here?
Its value is >100^(*^) μM.

What about the “Required concentration to achieve a reduction by ≥3 log10 stages (decrease by 99.9%)” value [2] of the same compound?
Its value is 50 μM.

How did the “Required concentration to achieve a reduction by ≥3 log10 stages (decrease by 99.9%)” value [1] turn out when `Cc1cc2nc3c(=O)[nH]c(=O)nc-3n(CCOCCOCCN)c2cc1C` [FL-05] was run?
Its value is >100^(*^) μM.

What about the “Required concentration to achieve a reduction by ≥3 log10 stages (decrease by 99.9%)” value [2] of the same compound?
Its value is 100 μM.
